{"source": "patent US20060189566A1", "about": "“Muscle building agent and preventive or remedy for muscle weakening” (priority 2003, published 2006)", "key": {"soleus muscle [1]": {"system": "soleus muscle", "assay": "Wet weight of soleus muscle (absolute, atrophy rate, per body weight) in cast-immobilized rats", "type": "in vivo, rat", "conditions": "mean ± SD; for Wet Weight of Soleus Muscle, Immobilized / Wet Weight of Soleus Muscle per Body Weight, Immobilized: immobilized leg; for Wet Weight of Soleus Muscle, Immobilized / Wet Weight of Soleus Muscle, Non-immobilized: 1 wt % CDP-choline feed; for Wet Weight of Soleus Muscle, Non-immobilized / Wet Weight of Soleus Muscle per Body Weight, Non-immobilized: non-immobilized leg", "method": "(§1) As test animals, 13 female 9-week-old rats of Fischer 344 strain (purchased from SLC Inc.) were used. The rats were preliminarily bred for 3 days in a chamber in which the temperature was adjusted to 22° C. under a bright-dark cycle where 07:00 to 19:00 was the bright period, and access to water and feed was ad libitum. After the preliminary breeding, the rats were divided into two groups, and a control feed was given to a control group consisting of 7 rats while a feed comprising CDP-choline (manufactured by Kyowa Hakko Kogyo Co., Ltd.) having the composition shown in Table 1 (hereinafter referred to as a CDP-choline feed) was given to the other group consisting of 6 rats for one day. Then, the right hind limb of each rat was immobilized in plaster cast under anesthesia with pentobarbital, followed by further feeding for one week under the above conditions. Thereafter, the rats were subjected to analysis with regard to the items shown below. In the test, two muscles, i.e., plantar muscle and soleus muscle located at the lower hind limbs of a rat, were used. Soleus muscle is a representative slow skeletal muscle in lower limbs where 80 to 90% of total muscle fibers are slow muscle fibers, and plantar muscle is a typical fast skeletal muscle where about 95% of total muscle fibers are fast muscle fibers. The rat was killed after body weight measurement, and the soleus muscle and plantar muscle of both the right and left lower hind limbs were quickly excised and washed with a physiological saline solution. After extraneous connective tissues, tendons, nerves, etc. were removed, the muscle wet weights of soleus muscle and plantar muscle were measured. The relative wet weight of muscle immobilized in a cast was determined for each rat based on the wet weight of muscle which was not immobilized in a cast, taken as 100, and the decrease in muscle weight was expressed as the atrophy rate. The wet weight of muscle relative to body weight was calculated by measuring the wet weight of both right and left soleus muscles and plantar muscles and dividing the obtained value by body weight. The wet weight of muscle per body weight excludes the influence of the difference in body weight on each muscle wet weight and reflects the muscle amount per body weight. The wet weight of soleus muscle per body weight is shown in Table 7, and the wet weight of plantar muscle per body weight is shown in Table 8."}, "plantar muscle": {"system": "plantar muscle", "assay": "Wet weight of plantar muscle (absolute, atrophy rate, per body weight) in cast-immobilized rats", "type": "in vivo, rat", "conditions": "mean ± SD; for Atrophy Rate (plantar muscle): decrease of immobilized muscle wet weight relative to non-immobilized taken as 100; for Wet Weight of Plantar Muscle, Immobilized / Wet Weight of Plantar Muscle per Body Weight, Immobilized: immobilized leg", "method": "as §1"}, "soleus muscle [2]": {"system": "soleus muscle", "assay": "Protein content of soleus muscle in cast-immobilized rats", "type": "in vivo, rat", "conditions": "mean ± SD; for Protein Content of Soleus Muscle, Non-immobilized: non-immobilized leg", "method": "As test animals, 13 female 9-week-old rats of Fischer 344 strain (purchased from SLC Inc.) were used. The rats were preliminarily bred for 3 days in a chamber in which the temperature was adjusted to 22° C. under a bright-dark cycle where 07:00 to 19:00 was the bright period, and access to water and feed was ad libitum. After the preliminary breeding, the rats were divided into two groups, and a control feed was given to a control group consisting of 7 rats while a feed comprising CDP-choline (manufactured by Kyowa Hakko Kogyo Co., Ltd.) having the composition shown in Table 1 (hereinafter referred to as a CDP-choline feed) was given to the other group consisting of 6 rats for one day. Then, the right hind limb of each rat was immobilized in plaster cast under anesthesia with pentobarbital, followed by further feeding for one week under the above conditions. Thereafter, the rats were subjected to analysis with regard to the items shown below. Soleus muscle was finely cut in a 1.15% potassium chloride solution and a homogenate thereof was prepared using a glass homogenizer. After the homogenate was appropriately diluted, its protein content was measured using the Protein Assay Kit of Biorad. A calibration curve was prepared using a 2 mg/ml BSA solution."}, "soleus muscle [3]": {"system": "soleus muscle", "assay": "Degradation rate of muscle plasma protein of soleus muscle (tyrosine release)", "type": "in vivo, rat", "conditions": "2 hours incubation in Krebs-Henseleit bicarbonate buffer, mean ± SD; for Decomposition Rate of Muscle Plasma Protein of Soleus Muscle, Tyrosine, Non-immobilized: non-immobilized leg", "method": "As test animals, 13 female 9-week-old rats of Fischer 344 strain (purchased from SLC Inc.) were used. The rats were preliminarily bred for 3 days in a chamber in which the temperature was adjusted to 22° C. under a bright-dark cycle where 07:00 to 19:00 was the bright period, and access to water and feed was ad libitum. After the preliminary breeding, the rats were divided into two groups, and a control feed was given to a control group consisting of 7 rats while a feed comprising CDP-choline (manufactured by Kyowa Hakko Kogyo Co., Ltd.) having the composition shown in Table 1 (hereinafter referred to as a CDP-choline feed) was given to the other group consisting of 6 rats for one day. Then, the right hind limb of each rat was immobilized in plaster cast under anesthesia with pentobarbital, followed by further feeding for one week under the above conditions. Thereafter, the rats were subjected to analysis with regard to the items shown below. Weighed soleus muscle was pre-incubated for 30 minutes in a Krebs-Henseleit bicarbonate buffer under aeration with […]. The muscle was then transferred to fresh Krebs-Henseleit bicarbonate buffer, and incubated for 2 hours. The concentration of tyrosine in the buffer was measured, whereby the degradation rate of muscle plasma protein was calculated. The concentration of tyrosine was measured by the fluorescence method of […], et al. using 1-nitroso-2-naphthol [J. Lab. Clin. Med., 50, 733 (1957)] (excitation wavelength: 435 nm; fluorescence wavelength: 545 nm). In order to prepare a calibration curve, a 5 nmol/ml tyrosine solution prepared as a standard solution was appropriately diluted and the relationship between its concentration and fluorescence intensity was plotted. By using the calibration curve thus prepared, the concentration of tyrosine in the buffer tested was determined from its fluorescence intensity."}, "C2C12 cells": {"system": "C2C12 cells", "assay": "Increase of intracellular protein in differentiated C2C12 cells (Methylene Blue method)", "type": "cell-based, mouse", "conditions": "3 days; for Increase Rate of Intracellular Protein: control d0 = 0, control d3 = 100", "method": "C2C12 cells were purchased from Dainippon Pharmaceutical Co., Ltd. Culturing was carried out according to the method of Craig, et al. [Methods in Cell Biology, 52, 85 (1998)]. A medium for growth was prepared by addition of 50 ml of FBS (manufactured by Gibco; Cat. No. 10099-141) and 5 ml of penicillin-streptomycin (manufactured by Gibco; Cat. No. 15140-122) to 500 ml of D-MEM medium (manufactured by Gibco; Cat. No. 11885-084). A medium for differentiation was prepared by addition of 10 ml of inactivated horse serum (manufactured by Gibco; Cat. No. 26050-088) and 5 ml of penicillin-streptomycin to 500 ml of the D-MEM medium. C2C12 cells were seeded and cultured in a 75-cm^2 flask containing 15 ml of the medium for growth and were subcultured before reaching confluence. Culturing was carried out in a CO2 incubator under 5% CO2 concentration and 100% relative humidity. The cell suspension diluted to 5×10^4 cells/ml with the medium for growth was added to each well of type I collagen-coated 96-well plate (Iwaki; Cat. No. 4860-010) in an amount of 100 μl. After confirming that the growth was uniform, the medium was replaced by the differentiation medium. Myogenesis was confirmed under a microscope after culturing for 3 days, and then a CDP-choline-containing PBS (−) solution was added to the medium until its final concentration reached 1 mg/ml or 0.1 mg/ml, followed by further culturing. […] The amount of intracellular protein was measured according to the method of Oliver, et al. [Journal of Cell Science, 92, 513 (1989)]. […] After the solution was appropriately diluted, the absorption at 650 nm was measured using a microplate reader. To determine the rate of increase of intracellular protein, the value of the test group (group to which CDP-choline was added) after culturing for 3 days was calculated based on the value before addition of CDP-choline (do) taken as 0 and the concentration of intracellular protein in the control group (group to which no CDP-choline was added) after culturing for 3 days (d3) taken as 100."}}}
{"smiles": "C[N+](C)(C)CCOP(=O)(O)OP(=O)([O-])OC[C@H]1O[C@@H](n2ccc(N)nc2=O)[C@H](O)[C@@H]1O", "note": "[CDP-Choline, Cytidine diphosphate choline]", "values": [{"measurement": "Atrophy Rate (soleus muscle)", "setting": "soleus muscle [1]; decrease of immobilized muscle wet weight relative to non-immobilized taken as 100", "result": "21.0 ± 6.5", "unit": "%"}, {"measurement": "Wet Weight of Soleus Muscle, Immobilized", "setting": "soleus muscle [1]", "result": "61.0 ± 5.2", "unit": "mg"}, {"measurement": "Wet Weight of Soleus Muscle, Immobilized", "setting": "soleus muscle [1]; listed as CDP-choline", "result": "no difference in wet weight of muscle"}, {"measurement": "Wet Weight of Soleus Muscle per Body Weight, Immobilized", "setting": "soleus muscle [1]", "result": "0.428 ± 0.027", "unit": "mg/g body weight"}, {"measurement": "Wet Weight of Soleus Muscle per Body Weight, Immobilized", "setting": "soleus muscle [1]; listed as CDP-choline", "result": "no difference"}, {"measurement": "Wet Weight of Soleus Muscle, Non-immobilized", "setting": "soleus muscle [1]", "result": "77.2 ± 3.9", "unit": "mg"}, {"measurement": "Wet Weight of Soleus Muscle, Non-immobilized", "setting": "soleus muscle [1]; listed as CDP-choline", "result": "no difference in wet weight of muscle"}, {"measurement": "Wet Weight of Soleus Muscle per Body Weight, Non-immobilized", "setting": "soleus muscle [1]", "result": "0.542 ± 0.030", "unit": "mg/g body weight"}, {"measurement": "Wet Weight of Soleus Muscle per Body Weight, Non-immobilized", "setting": "soleus muscle [1]; listed as CDP-choline", "result": "no difference"}, {"measurement": "Atrophy Rate (plantar muscle)", "setting": "plantar muscle", "result": "15.8 ± 5.8", "unit": "%"}, {"measurement": "Atrophy Rate (plantar muscle)", "setting": "plantar muscle; listed as CDP-choline", "result": "significantly lower"}, {"measurement": "Wet Weight of Plantar Muscle, Immobilized", "setting": "plantar muscle; 1 wt % CDP-choline feed", "result": "104.0 ± 2.7", "unit": "mg"}, {"measurement": "Wet Weight of Plantar Muscle, Immobilized", "setting": "plantar muscle; 1 wt % CDP-choline feed, listed as CDP-choline", "result": "significantly higher than the control group"}, {"measurement": "Wet Weight of Plantar Muscle per Body Weight, Immobilized", "setting": "plantar muscle", "result": "0.731 ± 0.029", "unit": "mg/g body weight"}, {"measurement": "Wet Weight of Plantar Muscle per Body Weight, Immobilized", "setting": "plantar muscle; listed as CDP-choline", "result": "significantly higher than the control group"}, {"measurement": "Wet Weight of Plantar Muscle, Non-immobilized", "setting": "plantar muscle; non-immobilized leg, 1 wt % CDP-choline feed", "result": "123.8 ± 7.4", "unit": "mg"}, {"measurement": "Wet Weight of Plantar Muscle per Body Weight, Non-immobilized", "setting": "plantar muscle; non-immobilized leg", "result": "0.870 ± 0.052", "unit": "mg/g body weight"}, {"measurement": "Protein Content of Soleus Muscle, Immobilized", "setting": "soleus muscle [2]; immobilized leg", "result": "128.4 ± 10.0", "unit": "mg protein/g tissue"}, {"measurement": "Protein Content of Soleus Muscle, Non-immobilized", "setting": "soleus muscle [2]", "result": "173.2 ± 15.0", "unit": "mg protein/g tissue"}, {"measurement": "Protein Content of Soleus Muscle, Non-immobilized", "setting": "soleus muscle [2]; listed as CDP-choline", "result": "significantly higher than the control group"}, {"measurement": "Decomposition Rate of Muscle Plasma Protein of Soleus Muscle, Tyrosine, Immobilized", "setting": "soleus muscle [3]; immobilized leg", "result": "322.1 ± 98.0", "unit": "nmol/g tissue/2 hours"}, {"measurement": "Decomposition Rate of Muscle Plasma Protein of Soleus Muscle, Tyrosine, Non-immobilized", "setting": "soleus muscle [3]", "result": "135.5 ± 50.1", "unit": "nmol/g tissue/2 hours"}, {"measurement": "Decomposition Rate of Muscle Plasma Protein of Soleus Muscle, Tyrosine, Non-immobilized", "setting": "soleus muscle [3]; listed as CDP-choline", "result": "significantly lower than the control group"}, {"measurement": "Increase Rate of Intracellular Protein", "setting": "C2C12 cells; CDP-choline 0.1 mg/ml", "result": 134}, {"measurement": "Increase Rate of Intracellular Protein", "setting": "C2C12 cells; CDP-choline 1 mg/ml", "result": 141}, {"measurement": "Amount of intracellular protein in C2C12 cells", "setting": "C2C12 cells; CDP-choline 0.1 and 1 mg/ml", "result": "increased in a CDP-choline concentration dependent manner"}]}
